In patent US8945540B2, “Compositions for enhancing the antibacterial activity of myeloperoxidase and methods of use thereof” (Exoxemis, Inc., priority 2008, dated 2015):
Where two headings read alike, the source gives them in different places.

Key:
[1] = system: Staphylococcus aureus; assay: Microbicidal activity of the myeloperoxidase system (p-MPO, glucose oxidase, glucose) with amino acids in the presence of blood, CFU plate counts; synergy determination from these CFU; format: cell-based; settings: for Average Viability CFU/ml 50 min / Log Reduction 50 min: single amino acid 2.5 mM, MPO 4.7 U/ml, GO 4.2 U/ml, in the presence of blood
Description: Bacterial suspensions, specifically Staphylococcus aureus in this example, were prepared by the shake flask method to achieve late log to early stationary phase growth. Bacteria were grown 24 hours in trypticase soy broth (TSB) at 35° C. The cultures were centrifuged at 4,000 rpm for 10 minutes and the supernatants removed. The pellet was collected and washed twice with sterile 0.9% normal saline (NS). The washed microorganisms were suspended and diluted with normal saline to a 3 McFarland standard, i.e., approximately 10^9 bacteria colony forming units (CFU) per mL. Actual colony counts are confirmed by serial dilutions (10^−1 to 10^−5 or 10^−6) plated on TSA and incubated overnight at 35° C. To obtain an approximate final working target inoculum of 10^7 CFU/mL, 15 microliters of organisms per mL of final reaction mixture are used.
Glucose oxidase (GO) from Aspergillus Niger was purchased from Biozyme, Inc., UK, Cat #GO3A, 270 U/mg). Porcine Myeloperoxidase (p-MPO) (Exoxemis, Inc., Little Rock, Ark. U.S.A., 375 U/mg). Sterile stock solutions of D-glucose and sodium chloride were prepared and used at a final concentration of 150 mM each. L-Lysine hydrochloride (Spectrum Chemical Cat #L1142) was prepared as a 100 mM stock solution. Catalase (Sigma, Cat #C-40) was prepared as a 1% stock solution in sterile 0.9% normal saline. Blood was collected by venipuncture and used as whole blood within the same day.
Staphylococcus aureus were used to give a final target concentration of 2-3×10^7 CFU (7.4 log 10) per mL and venous whole blood was used to give a final concentration of 3%. Glucose was added to the reaction mixtures to a final concentration of 150 mM, which initiated the microbicidal reaction. The final volume of the reaction mixtures was 1 mL. The reactions were allowed to run from 30 minutes to 2 hours, as needed, at room temperature or at 37° C. in a dry bath. At the specified time points the reaction mixtures were treated with 100 microliters of a catalase solution, containing a minimum of 100 units/μL, to consume remaining peroxide and terminate the oxidative killing. Serial dilution plate counts were performed from the contents of each vial in sterile saline and inoculated onto trypticase soy agar (TSA) for quantitative culture. Plates were then incubated at 37° C. and counts taken at 24 hours. […] The results are shown in Table 1, as the average of 2 replicates.
The amino acids alone, in the absence of MPO were tested to rule out their microbicidal activity. The results are shown in Table 2 to Table 6, as the average of 2 replicates.
The amino acid analogues alone, in the absence of MPO, were tested to rule out their microbicidal activity. […]
The effect of two-way combinations of individual amino acids with L-isoleucine, as potential enhancing agents, for MPO microbicidal action in the presence of blood, was therefore examined by following the procedure of Example 5.
The Actual CFU observed for the pair is then divided by the Predicted CFU and multiplied by 100 to calculate the % of Predicted value. This value is then to be compared to the threshold value, discussed in the next section, to determine whether the pair are synergistic, antagonistic, or additive.
Calculation of appropriate threshold values for determination of synergism and antagonism was based upon the variability of replicated CFU survivor measures.

[2] = system: Staphylococcus aureus; assay: Control: microbicidal activity of the amino acid or analogue alone (no glucose, MPO, glucose oxidase) in the presence of blood; format: cell-based; settings: for log reduction at 5000 µM: Staphylococcus aureus, 1 h, read-out: Log Reduction 60 min
Source text: As a control to determine the microbicidal activity of the amino acids alone, the foregoing procedure was followed without replication, except in the absence of glucose, MPO, and glucose oxidase.

[3] = MPO 100 μg/mL, AA 20 mM, 30 min
[4] = MPO 100 μg/mL, AA 20 mM, 60 min
[5] = Table 3, amino acid 5 mM (none: 0 mM), MPO 38 U/ml, GO 33.3 U/ml, blood
[6] = amino acid alone 5 mM, MPO 0, GO 0, no glucose, blood, without replication
[7] = Table 2, amino acid 5 mM (none: 0 mM), MPO 38 U/ml, GO 33.3 U/ml, blood
[8] = Table 7, amino acid analogue 5 mM, MPO 38 U/ml, GO 33.3 U/ml, blood
[9] = amino acid analogue alone 5 mM, MPO 0, GO 0, no glucose, blood
[10] = L-lysine 5 mM, MPO 9 U/ml, GO 0.833 U/ml, 3% blood
[11] = L-lysine 5 mM, MPO 9 U/ml, GO 8.33 U/ml, 3% blood
[12] = L-lysine 5 mM, MPO 38 U/ml, GO 3.3 U/ml, 3% blood
[13] = L-lysine 5 mM, MPO 38 U/ml, GO 33.3 U/ml, 3% blood
[14] = L-lysine 20 mM, MPO 38 U/ml, GO 3.3 U/ml, 3% blood
[15] = L-lysine 20 mM, MPO 38 U/ml, GO 33.3 U/ml, 3% blood
[16] = L-lysine […], MPO 9 U/ml, GO 0.833 U/ml, 3% blood
[17] = L-lysine […], MPO 9 U/ml, GO 8.33 U/ml, 3% blood

C[C@@H](N)C(=O)O [D-Alanine]
Log 10 (CFU + 1) Survivors ([1]; MPO 25 μg/mL, AA 5 mM, 30 min): 7.3
Log 10 (CFU + 1) Survivors ([1]; MPO 25 μg/mL, AA 5 mM, 60 min): 3.7
Log 10 (CFU + 1) Survivors ([1]; MPO 25 μg/mL, AA […], 30 min): 7.3
Log 10 (CFU + 1) Survivors ([1]; MPO 25 μg/mL, AA […], 60 min): 6.7
Log 10 (CFU + 1) Survivors ([1]; MPO 100 μg/mL, AA 5 mM, 30 min): 6.8
Log 10 (CFU + 1) Survivors ([1]; MPO 100 μg/mL, AA 5 mM, 60 min): 0.6
Log 10 (CFU + 1) Survivors [1, 3]: 7.3
Log 10 (CFU + 1) Survivors [1, 4]: 0.0
Average Viability CFU/ml 60 min [1, 5]: 0 CFU/ml
Log 10 (CFU + 1) Survivors 60 min [1, 5]: 0.0
Log Reduction 60 min [1, 5]: 7.3
Average Viability CFU/ml 50 min ([1]; Table 13): 1900000 CFU/ml
Log Reduction 50 min ([1]; Table 13): 1.1
log reduction at 5000 µM [2, 6]: 0
Average Viability CFU/ml 60 min [2, 6]: 19600000 CFU/ml

N[C@@H](Cc1c[nH]c2ccccc12)C(=O)O [L-Tryptophan]
Average Viability CFU/ml 60 min [1, 7]: 21150000 CFU/ml
Log 10 (CFU + 1) Survivors 60 min [1, 7]: 7.3
Log Reduction 60 min [1, 7]: 0.1
log reduction at 5000 µM [2]: 0
Average Viability CFU/ml 60 min [2, 6]: 21600000 CFU/ml

CC(N)CC(=O)O (centres unmarked) [3-Aminobutanoic acid]
Average Viability CFU/ml 60 min [1, 8]: 9 CFU/ml
Log Reduction 60 min [1, 8]: 6.4
log reduction at 5000 µM [2, 9]: 0
Average Viability CFU/ml 60 min [2, 9]: 21300000 CFU/ml

NCCCC[C@H](N)C(=O)O [L-Lysine]
Average Viability CFU/ml 30 min [1, 10]: 775000 CFU/ml
Average Viability CFU/ml 60 min [1, 10]: 53000 CFU/ml
Log Reduction 30 min [1, 10]: 1.5
Log Reduction 60 min [1, 10]: 2.7
Average Viability CFU/ml 30 min [1, 11]: 675000 CFU/ml
Average Viability CFU/ml 60 min [1, 11]: 47 CFU/ml
Log Reduction 30 min [1, 11]: 1.6
Log Reduction 60 min [1, 11]: 5.7
Average Viability CFU/ml 30 min [1, 12]: 6050 CFU/ml
Average Viability CFU/ml 60 min [1, 12]: 770 CFU/ml
Log Reduction 30 min [1, 12]: 3.6
Log Reduction 60 min [1, 12]: 4.5
Average Viability CFU/ml 30 min [1, 13]: 7 CFU/ml
Average Viability CFU/ml 60 min [1, 13]: 3 CFU/ml
Log Reduction 30 min [1, 13]: 6.5
Log Reduction 60 min [1, 13]: 6.8
Average Viability CFU/ml 30 min [1, 14]: 6450 CFU/ml
Average Viability CFU/ml 60 min [1, 14]: 620 CFU/ml
Log Reduction 30 min [1, 14]: 3.6
Log Reduction 60 min [1, 14]: 4.6
Average Viability CFU/ml 30 min [1, 15]: 5 CFU/ml
Average Viability CFU/ml 60 min [1, 15]: 5 CFU/ml
Log Reduction 30 min [1, 15]: 6.6
Log Reduction 60 min [1, 15]: 6.6
Average Viability CFU/ml 30 min [1, 16]: 5050000 CFU/ml
Average Viability CFU/ml 60 min [1, 16]: 620000 CFU/ml
Log Reduction 30 min [1, 16]: 0.7
Log Reduction 60 min [1, 16]: 1.6
Average Viability CFU/ml 30 min [1, 17]: 6200000 CFU/ml
Average Viability CFU/ml 60 min [1, 17]: 4950 CFU/ml
Log Reduction 30 min [1, 17]: 0.6
Log Reduction 60 min [1, 17]: 3.7
Log 10 (CFU + 1) Survivors ([1]; MPO 25 μg/mL, AA 5 mM, 30 min): 5.8
Log 10 (CFU + 1) Survivors ([1]; MPO 25 μg/mL, AA 5 mM, 60 min): 1.6
Log 10 (CFU + 1) Survivors ([1]; MPO 25 μg/mL, AA […], 30 min): 6.8
Log 10 (CFU + 1) Survivors ([1]; MPO 25 μg/mL, AA […], 60 min): 3.7
Log 10 (CFU + 1) Survivors ([1]; MPO 100 μg/mL, AA 5 mM, 30 min): 0.9
Log 10 (CFU + 1) Survivors ([1]; MPO 100 μg/mL, AA 5 mM, 60 min): 0.5
Log 10 (CFU + 1) Survivors [1, 3]: 0.8
Log 10 (CFU + 1) Survivors [1, 4]: 0.8
Average Viability CFU/ml 60 min [1, 7]: 0 CFU/ml
Log 10 (CFU + 1) Survivors 60 min [1, 7]: 0.0
Log Reduction 60 min [1, 7]: 7.4
Average Viability CFU/ml 50 min ([1]; Table 10): 16200000 CFU/ml
Log Reduction 50 min ([1]; Table 10): 0.2
Average Viability CFU/ml 50 min ([1]; Table 11): 18900000 CFU/ml
Log Reduction 50 min ([1]; Table 11): 0.2
Average Viability CFU/ml 50 min ([1]; Table 13): 11400000 CFU/ml
Log Reduction 50 min ([1]; Table 13): 0.3
Average Viability CFU/ml 50 min ([1]; Table 14): 16950000 CFU/ml
Log Reduction 50 min ([1]; Table 14): 0.2
log reduction at 5000 µM [2]: 0
Average Viability CFU/ml 60 min [2, 6]: 21400000 CFU/ml
